{"source": "patent US4967772A", "about": "“Tobacco smoking article and treatment of tobacco smoke with at least one alcohol” (C.A. Blockers, Inc., priority 1987, dated 1990)", "key": {"[1]": {"tested_on": "rodents", "settings": "cited from earlier work; for carcinogenicity: N-nitroso derivatives of tobacco alkaloids"}, "[2]": {"tested_on": "nitrosamine localization", "test": "Inhibition of selective localization of nitrosamines (delocalization), general statement", "format": "in vivo", "description": "The alcohols which are operable according to the invention include alcohols having two or more carbons. However, it is preferable to use alcohols having alkyl groups of at least three carbons or greater. The alkyl groups may have a straight-chain or branched chain structure. Moreover, the alkyl groups may have a cyclic or acyclic structure."}, "[3]": {"tested_on": "malignant growth and tumor development", "settings": "cited from earlier work"}, "[4]": {"tested_on": "epithelial membranes", "settings": "cited from earlier work"}, "[5]": {"tested_on": "bronchial epithelium", "test": "Whole-body autoradiography of [14C] NNN after inhalation of cyclohexanol vapor", "format": "in vivo, C57BL/6J mouse", "settings": "5 min inhalation", "experimental": "The mouse was kept in the closed beaker for about five minutes as the bottom of the beaker was maintained at 50° C. in a water bath. […] Handbook of Chemistry and Physics (1979) at D-203 to D-217, which is incorporated herein in its entirety.\nOne hour later, the mouse was anesthetized lightly by ether and frozen by immersion in dry ice/hexane. […] Control experiments were conducted for comparison purposes and radioactivity was detected in the respiratory epithelium in the controls.\nExample 2 was duplicated, except that the mouse was kept in the closed beaker for five minutes as the bottom of the beaker was maintained at 20° C. in a water bath. […] After injection as in Example 2, the mouse was processed in the same manner as in Example 2."}, "[6]": {"test": "Whole-body autoradiography: localization of [14C] NNN radioactivity in bronchial epithelium after oral alcohol pretreatment", "format": "in vivo, male C57BL/6J mice", "experimental": "(§1) One hour later, the mice were anesthetized lightly with ether and frozen by immersion in dry ice/hexane. Twenty u-thick whole-body sagittal sections of the frozen mice were taken onto Scotch tape and were then processed for whole-body autoradiography by known methods. See W. Waddell et al, Drug Fate and Metabolism: Methods and Techniques. E.R. Garrett and J.L. Hirtz, Eds. […] Photometric density in areas of the developed autoradiographs was measured with an ADG Instruments photometer and a photocell with an aperture of three mm lying on the easel of a photographic enlarger. The X-ray film was placed in the enlarger and raised to produce a magnification of thirty-five times on the easel.\n(§2) NNN. […] (Twenty minutes is the average time it takes for alcohols introduced by oral intubation in mice to reach the peak blood level.)\n(§3) The number within each bar thereof represents the dose in g/kg of the alcohol which was administered orally twenty minutes before the [^14 C] NNN was given intravenously. The mice were frozen one hour after receiving the [^14 C] NNN. The means for each mouse were from fifteen measurements on random areas of that site (five absorbancies on each of three autoradiographs) after setting blood in each on zero. The control value is the mean from six mice; the n-butanol at one g/kg is from two mice; and the other means are from one mouse."}, "[7]": {"tested_on": "salivary duct epithelium", "settings": "oral 20 min before i.v. [14C] NNN; ethanol 1 and 5 g/Kg, n-butanol 0.2 and 1 g/Kg; 1 h", "experimental": "as §1, §2, §3"}, "[8]": {"tested_on": "liver", "settings": "oral 20 min before i.v. [14C] NNN; ethanol 1 and 5 g/Kg, n- and t-butanol 0.2 and 1 g/Kg; 1 h", "experimental": "as §1, §2, §3"}, "[9]": {"tested_on": "rats", "settings": "cited from earlier work"}, "[10]": {"tested_on": "adult human", "settings": "per kg body weight; cited from earlier work"}, "[11]": {"tested_on": "F-344 rats", "settings": "NNN in drinking water; cited from earlier work"}, "[12]": {"tested_on": "F-344 rat esophagus", "settings": "in contrast to other tissues; cited from earlier work"}, "[13]": {"tested_on": "tissues of the body", "settings": "[14C] NNN, adult male C57BL/6J mice; cited from earlier work"}, "[14]": {"tested_on": "nitrosamine localization", "test": "Whole-body autoradiography of [14C] NNN after intraperitoneal imidazole", "format": "in vivo, male C57BL/6J mouse", "settings": "20 min before i.v. [14C] NNN, vs control mouse", "experimental": "An adult male C57BL/6J mouse was injected intraperitoneally with 0.02 ml/g body weight of a solution of imidazole in water. The imidazole solution concentration was such that 0.05 g of imidazole was delivered per kg of body weight. […] See Example 1.\nExample 4 was duplicated except that the adult mouse was injected intraperitoneally with 0.02 ml/g body weight of a solution of imidazole in water, wherein the solution concentration was such that 0.25 g of imidazole was delivered per kg of body weight."}}, "data": [{"compound": "CN(CCCC(=O)c1cccnc1)N=O", "note": "[NNK, 4-N-methyl-N-nitrosamino)-1-(3-pyridyo-1-butano]", "values": [{"measurement": "carcinogenicity", "setting": "[1]", "result": "powerful environmental carcinogens"}]}, {"compound": "S=C=NCc1ccccc1", "note": "[benzylisothiocyanate]", "values": [{"measurement": "delocalization of nitrosamines", "setting": "[2]", "result": "found to delocalize nitrosamines"}]}, {"compound": "[Se]", "note": "[Selenium]", "values": [{"measurement": "tumor development", "setting": "[3]", "result": "inhibit tumor development"}]}, {"compound": "Vitamin E", "values": [{"measurement": "formation of nitrosamines on epithelial membranes", "setting": "[4]", "result": "prevent the formation of nitrosamines on epithelial membranes"}]}, {"compound": "O=C1O[C@H]([C@@H](O)CO)C(O)=C1O", "note": "[Vitamin C]", "values": [{"measurement": "formation of nitrosamines on epithelial membranes", "setting": "[4]", "result": "prevent the formation of nitrosamines on epithelial membranes"}]}, {"compound": "c1cn[nH]c1", "note": "[pyrazole]", "values": [{"measurement": "delocalization of nitrosamines", "setting": "[2]", "result": "found to delocalize nitrosamines"}]}, {"compound": "OC1CCCCC1", "note": "[cyclohexanol]", "values": [{"measurement": "radioactivity in bronchial epithelium", "setting": "[5]; 20° C., 0.001% cyclohexanol in air", "result": "No radioactivity was detected in any part of the bronchial epithelium"}, {"measurement": "radioactivity in bronchial epithelium", "setting": "[5]; 50° C., 0.01% cyclohexanol in air", "result": "No radioactivity was detected in any part of the bronchial epithelium"}]}, {"compound": "CC(C)(C)O", "note": "[t-butanol]", "values": [{"measurement": "inhibition in bronchial epithelium (FIG. 1), ranking", "setting": "[6]; from inspection of FIG. 1, oral pretreatment", "result": "greatest inhibition"}, {"measurement": "localization of [14C] NNN in bronchial epithelium", "setting": "[6]; high dosage (t-butanol 1 g/Kg oral), 20 min before i.v. [14C] NNN", "result": "almost completely abolished"}]}, {"compound": "C[S+](C)[O-]", "note": "[dimethylsulfoxide (DMSO), dimethylsulfoxide]", "values": [{"measurement": "delocalization of nitrosamines", "setting": "[2]", "result": "found to delocalize nitrosamines"}]}, {"compound": "CCO", "note": "[ethanol]", "values": [{"measurement": "localization of radioactivity in bronchial epithelium", "setting": "[6]; oral 20 min before i.v. [14C] NNN, ethanol 1 and 5 g/Kg, n-butanol 0.2 and 1 g/Kg, 1 h", "result": "reduced by pretreatment"}, {"measurement": "localization of radioactivity in salivary duct epithelium", "setting": "[7]", "result": "reduced by pretreatment"}, {"measurement": "localization of radioactivity in periportal and central areas of the liver", "setting": "[8]", "result": "reduced by pretreatment"}]}, {"compound": "[Cl-].[Na+]", "note": "[sodium chloride, reference compound]", "values": [{"measurement": "LD50", "setting": "[9]; acute oral, rats", "result": "about 3.75 g/Kg"}]}, {"compound": "CC1=C(/C=C/C(C)=C/C=C/C(C)=C/CO)C(C)(C)CCC1", "note": "[retinol, reference compound]", "values": [{"measurement": "inhibition of nitrosamine localization", "setting": "[2]", "result": "does not inhibit nitrosamine localization"}]}, {"compound": "CN1CCCC1c1cccnc1", "note": "(stereo not shown) [nicotine]", "values": [{"measurement": "estimated acutely fatal oral dose", "setting": "[10]", "result": 1, "unit": "mg/kg"}]}, {"compound": "CCCCC(CC)CO", "note": "(stereo not shown) [2-ethyl hexanol]", "values": [{"measurement": "Acute Oral LD50 rats", "setting": "[9]; rat, in vivo, po", "result": "3200 to 7100", "unit": "mg/kg"}]}, {"compound": "O=NN1CCCC1c1cccnc1", "note": "(stereo not shown) [NNN, N'-Nitrosonoronicotine]", "values": [{"measurement": "esophageal tumors", "setting": "[11]", "result": "esophageal tumors have been induced"}, {"measurement": "hydroxylation at the a-carbon of NNN adjacent to the pyridine ring", "setting": "[12]", "result": "preferentially catalyzes hydroxylation at the a-carbon of NNN adjacent to the pyridine ring"}, {"measurement": "carcinogenicity", "setting": "[1]", "result": "powerful environmental carcinogens"}, {"measurement": "sites of tumor formation", "setting": "[1]; in vivo", "result": "typically induces tumor formation at five sites, namely the nasal cavity, salivary duct, esophagus, bronchial epithelium and the liver"}, {"measurement": "carcinogenesis in olfactory epithelium, lung, salivary glands", "setting": "[1]; rodents", "result": "known to induce carcinogenesis in the olfactory epithelium, lung, salivary glands"}, {"measurement": "retention of radioactivity versus sites of tumor formation", "setting": "[13]", "result": "striking correlation of the retention of radioactivity with the previously reported sites of tumor formation"}]}, {"compound": "Vitamin A", "values": [{"measurement": "malignant growth", "setting": "[3]", "result": "suppress malignant growth"}]}, {"compound": "c1c[nH]cn1", "note": "[imidazole]", "values": [{"measurement": "delocalization of nitrosamines", "setting": "[2]", "result": "found to delocalize nitrosamines"}, {"measurement": "nitrosamine delocalization", "setting": "[14]; 0.05 g/kg imidazole i.p.", "result": "Significant nitrosamine delocalization"}, {"measurement": "delocalization of nitrosamine", "setting": "[14]; 0.25 g/kg imidazole i.p.", "result": "significant delocalization of nitrosamine"}]}]}
